{"source": "paper PMC3664642", "about": "“A Peptide against Soluble Guanylyl Cyclase α1: A New Approach to Treating Prostate Cancer” (PLoS ONE, 2013)", "key": {"LNCaP cells": {"tested_on": "LNCaP cells", "experiment": "Proliferation/cytotoxicity, LNCaP cells (MTT)", "assay_type": "cell-based", "settings": "different concentrations, averages of three independent experiments", "procedure": "(§1) LNCaP, C81, PC-3 and Cos cells were grown as previously described. CWR-22Rv1 cells were cultured in RMPI-1640 medium with 10% FBS and 50 µg/ml Gentamicin (Gibco). Control siRNA, sGCα1 siRNA and AKT siRNA (Dharmacon) at 50 nM final concentration was transfected into cells using Lipofectamine siMAX (Invitrogen).\n(§2) For proliferation, cells were grown in medium containing 2% FBS extracted with dextran-coated charcoal (DCC). 48 hours later, ethanol or 1 nM R1881 was added to the cells followed by peptide treatment. The MTT assay (Sigma) was used as before to determine cell number. For apoptosis, 5000 cells were seeded in 96-well plates and treated with Vehicle (DMSO), Peptide A-8R (25 µM), Etoposide (50 µM) (Sigma) at different time points. The Caspase (3/7) activity was measured using Apo-ONE Homogeneous Caspase-3/7 assay kit (Promega). PARP cleavage was also used to measure apoptosis, and is described below.\n(A) Four peptides were designed targeting sGCα1, with each peptide containing eight arginines at the C-terminus for membrane translocation. (B) LNCaP cells were grown in 10% serum under different concentrations of the four peptides, as shown. Cell number was measured after 0–4 days of incubation. Data points represent averages of three independent experiments plus standard deviations. Asterisks indicate statistical significance (P<0.0002) of Peptide A activity, relative to Vehicle.\nFigure 2 Peptide A-8R interacts with sGCα1 in prostate cancer cells. (A) LNCaP cells were treated with 25 µM Biotin-labeled Peptide A-8R for 2 hrs and subjected to immunocytochemistry using anti-sGCα1 or anti-Biotin antibody to measure subcellular co-localization of endogenous sGCα1 and Peptide A-8R. DAPI was used to stain nuclei. (B) LNCaP cytosolic extracts were incubated with Peptide A-8R-Biotin and subjected to purification using streptavidin-agarose. This pull-down experiment was repeated with competing excess amount of unlabeled Peptide C-8R or Peptide A-8R. […] Co-purified Peptide A-8R-FITC was quantified by measuring fluorescence signal emission. […] Cell number was measured after 0–48 hrs of incubation. […]"}, "PC-3 cells": {"tested_on": "PC-3 cells", "experiment": "Proliferation/cytotoxicity, sGCα1-deficient PC-3 cells (MTT)", "assay_type": "cell-based", "settings": "different concentrations, Fig. 3E", "procedure": "as §1, §2\nVehicle or different concentrations of Peptide A-8R or C-8R, as shown, was added to (A) hormone-dependent LNCaP cells grown in 2% serum without or with 1 nM R1881, (C) castration-resistant C81 or CWR-22Rv1 cells, or (E) sGCα1-deficient PC-3 or Cos cells. Cell number was measured after various days of incubation. Data points represent averages of three independent experiments plus standard deviations. […]"}, "sGCα1-sGCβ1": {"tested_on": "sGCα1-sGCβ1", "experiment": "sGCα1-sGCβ1 co-immunoprecipitation, LNCaP extracts", "assay_type": "binding", "settings": "LNCaP whole-cell extracts; Fig. S1A", "procedure": "Immunoprecipitation (IP) in LNCaP cells was performed as described previously. Whole-cell extracts from LNCaP cells were subjected to IP using Protein A/G plus Agarose (Santa Cruz). IP antibodies were against sGCα1 (Cayman Chemical), sGCβ1 (Cayman Chemical), or rabbit IgG (Santa Cruz) as control. For Biotin pulldown, 5 µg Biotin-labeled Peptide A was incubated with NeutrAvidin Agarose Resin (Thermo Scientific) for 3 hours at 4°C, after which whole-cell extract from LNCaP cells was added and incubated overnight at 4°C. Resin was washed and eluted with SDS Sample buffer, followed by SDS-PAGE gel electrophoresis.\n(A) Whole-cell extracts from LNCaP cells treated with Vehicle, Peptide A-8R, or C-8R were subjected to IP using an anti-sGCα1 or anti-sGCβ1 antibody and then probed by Western blotting for sGCα1 (Upper) or sGCβ1 (Lower). Input represents amount of sGCα1 or sGCβ1 found in extracts. (B) LNCaP cells grown in the absence or presence of 1 nM R1881 were treated with Vehicle, 20 µM Peptide A-8R, 20 µM C-8R, or 8-Br-cGMP and monitored for cGMP levels using the cGMP E1A kit (Enzo Life Sciences). (C) LNCaP cells grown in the absence or presence of 8-Br-cGMP were treated with Vehicle, Peptide A-8R, or ODQ and monitored for cell density using the MTT assay. (D) LNCaP cells were treated with Vehicle or different concentrations of Peptide A-8R and C-PTIO and monitored for cell density. […]"}}, "note": "“Also recorded” adds a separate entry of the source. Where no end group is shown, it is not given here."}
{"substance": "Ac-TFCKAFPFHIIRRRRRRRR [Peptide A-8R]", "values": [{"measurement": "cytotoxic activity / cell number, LNCaP", "setting": "LNCaP cells; 10% serum, 0–4 days, Fig. 1B, P<0.0002 Peptide A vs Vehicle", "result": "strong, dose-dependent, cytotoxic activity, killing nearly all cells by day 4; also recorded: strongly cytotoxic to prostate cancer cells"}, {"measurement": "cytotoxic effect with or without 8-arginine sequence", "setting": "LNCaP cells; LNCaP, MTT, Fig. S2, P<0.005", "result": "strong cytotoxic effect"}, {"measurement": "effect on PC-3 cells", "setting": "PC-3 cells", "result": "little to no effect"}, {"measurement": "effect on sGCα1-sGCβ1 co-IP (heterodimerization)", "setting": "sGCα1-sGCβ1", "result": "had no effect on either sGCα1 co-IP with sGCβ1 or sGCβ1 co-IP with sGCα1; also recorded: does not interfere with sGCα1-sGCβ1 dimerization"}]}
